How the values were obtained:
[1] = system: NIH 3T3 cells transformed by the T24 activated human H-ras gene; test: Ras-Transformed Cell Phenotype Reversion Assay; assay type: cell-based, mouse; conditions: NIH3T3; cell counts after 72 hours proliferation; test concentrations 5, 10, 50, 100 and 500 nM
From the text: “Ras-Transformed Cell Phenotype Reversion Assay”
Insertion of activated oncogenes such as the mutant ras gene into mouse NIH 3T3 cells converts the cells to a transformed phenotype, The cells become tumorigenic, display anchorage independent growth in semi-solid medium and lose contact inhibition. Loss of contact inhibition produces cell cultures which no longer form uniform monolayers. Rather, the cells pile up into multicellular nodules and grow to very high saturation densities in plastic tissue culture dishes. Agents such as protein famesyl transferase inhibitors which revert the ras transformed phenotype restore the uniform monolayer growth pattern to cells in culture. This reversion is easily monitored by counting the number of cells in tissue culture plates. Transformed cells will achieve higher cell numbers than cells which have reverted to an untransformed phenotype. Compounds which revert the transformed phenotype should produce antitumor effects in tumors bearing ras gene mutations.
Compounds are screened in tissue culture in NIH 3T3 cells transformed by the T24 activated human H-ras gene. […] Then the cells are detached in 1.0 ml trypsin-EDTA cell dissociation medium and counted on a Coulter particle counter.
Cell numbers expressed as cells per well are measured using a Coulter Particle Counter. […]

For `O=c1nc(-c2cccc(Cl)c2)c2cc(C(c3ccc(Cl)cc3)n3ccnc3)ccc2n1Cc1ccncc1` (racemic) [Compound 3, (±)-4-(3-chlorophenyl)-6-[(4-chlorophenyl)-1H-imidazol-1-ylmethyl]-1-(4-pyridinylmethyl)-2(1H)-quinazolinone], the melting point was 61.4 °C.

In the case of `CN1C(=O)NC(c2cccc(Cl)c2)c2cc(C(c3ccc(Cl)cc3)c3cncn3C)ccc21` (racemic) [Compound 14, (±)-4-(3-chlorophenyl)-6-[(4-chlorophenyl)(1-methyl-1H-imidazol-5-yl)methyl]-3,4-dihydro-1-methyl-2(1H)-quinazolinone], the IC50 [1] is reported as less than 500 nM.

With `O=c1nc(-c2cccc(Cl)c2)c2cc(C(c3ccc(Cl)cc3)n3ccnc3)ccc2[nH]1` (racemic) [Compound 1, (±)-4-(3-chlorophenyl)-6[(4-chlorophenyl)-1H-imidazol-1-ylmethyl]-2(1H)-quinazolinone] the melting point was 255.1 °C.

Compound `O=C1Nc2ccc(C(c3ccc(Cl)cc3)n3ccnc3)cc2C(c2cccc(Cl)c2)N1` (racemic) [Compound 8, (±)-4-(3-chlorophenyl)-6-[(4-chlorophenyl)-1H-imidazol-1-ylmethyl]-3,4-dihydro-2(1H)-quinazolinone] has a melting point of 177.1 °C.

Source: patent US6358961B1, “Farnesyltransferase inhibiting quinazolinones” (Jannsen-Cilag S.A., priority 1997, dated 2002)
